Assays:
[1] = system: CTLL-2 cells; experiment: CTLL-2 proliferation assay (3H-thymidine); type: cell-based, mouse; settings: Sup-T1 supernatants or control cytokine, 24 h
Method: The CTLL-2 assay was used to determine whether IL-15 produced by transduced Sup-T1 cells was biologically active.
CTLL-2 cells were grown in culture for 4 days and then harvested and washed twice in PBS and then plated into a 96-well plate, 5×10^3 cells/well. The CTLL-2 cells were incubated in the absence of cytokines for 4 hours. Supernatants from the transduced Sup-T1 cells were then added to the culture in serial dilutions. […] The CTLL-2 cells were cultured for a total of 24 hours; during the final six hours ^3H-Thymidine was added to each well. The CTLL-2 cells were harvested to a filter and read on a β-counter.

[2] = system: IL-15Rα; experiment: IL-15Ralpha expression by flow cytometry; type: cell-based, human; settings: OKT3 stimulated lymphocytes, FIG. 15
From the text: In vitro, supraphysiologic levels of cytokine can engage intermediate and low affinity IL-15 receptors on lymphocytes lacking IL-15Rα. […] IL-15Rα was detected with a polyclonal, biotinylated antibody and biotinylated isotype-matched control antibody; cell surface-bound antibody was then labeled with streptavidin-PE (R&D Systems). PE was detected through flow cytometry.

IL-15: exogenous recombinant human IL-15 added to culture media
proliferation of CTLL-2 [1]: did proliferate
IL-15Rα staining [2]: did not manifest IL-15Rα staining

— patent US7998736B2, “Adoptive immunotherapy with enhanced T lymphocyte survival” (The United States of America as represented by the …, priority 2004, dated 2011)
